In patent US9102697B2, “Trioxacarcins and uses thereof” (President and Fellows of Harvard College, priority 2010, dated 2015):

What was measured:
[1] = Storage and solution stability
[2] = Water solubility; conditions: attenuated by saturation with sodium chloride
[3] = system: self-complementary duplex 12-mer d(AATTACGTAATT) (SEQ ID NO: 1); test: DNA alkylation detected by non-denaturing DNA-gel electrophoresis with in-gel fluorescence; assay type: biochemical; conditions: oligonucleotide 100 μM; at the lowest concentration of DC-45-A2 (printed 1 mM); 3 h at 23 °C
[4] = system: nuclei of H460 cells; test: Fluorescence microscopy of labeled H460 cells; assay type: cell-based; conditions: 0.4 μM, 5 h at 37 °C, co-stain TO-PRO-3
Description: Fluorescence images of nuclei of H460 cells labeled with DC-45-A2 [4.0 μM] or dideoxy-DC-45-A2 [0.4 μM] for 5 h at 37° C. is provided in FIG. 15. […] The scale bar represents 10 μm.
Experimental Details for Fluorescence Microscopy: H460 cells were grown on 22 mm glass coverslips and allowed to attach for 24 h. Subconfluent H460 cells (50-60% confluency) were treated with drugs of desired concentration and incubated at 37° C. for 5 h. The coverslips were washed three times with warm PBS. The cells were then fixed with 4% paraformaldehyde in PBS at 23° C. for 15 min. At 23° C., the cells were permeablized with 0.1% Triton-X100 in PBS for 15 min and blocked with 5% BSA for 40 min. After two washes with PBS, the cells were incubated with 0.2 µM TO-PRO-3 (Invitrogen) in PBS at 23° C. for 15 min. The coverslips were washed three times with PBS and mounted with Mowiol on microscope slides. Fluorescent images were captured on an Olympus IX71 inverted microscope equipped with a 60× water-immersion objective, a Nikon Intensilight Illuminator, and an Andor iXon EMCCD camera. Imaging data of DC-45-A2 and dideoxy DC-45-A2 were collected with a 387/11 nm excitation filter and a 510/84 nm emission filter purchased from Semrock. TO-PRO-3 dye was imaged using Cy5 channels. The images were complied and colorized using ImageJ software.

| Substance | stability in solution ([1]; in solution at 23 °C) | stability on storage ([1]; stored neat at −25 °C with exclusion of light) | water solubility [2] | fluorescent DC-45-A2-DNA complex, in-gel fluorescence prior to ethidium bromide staining [3] | localization in cells [4] |
| --- | --- | --- | --- | --- | --- |
| DC-45-A2 | slow decomposition over hours | stable | appreciable water solubility | clearly observed |  |
| Dideoxy-DC-45-A2 |  |  |  |  | co-localizes with nuclear DNA |
